Assay results taken from patent EP2698384A1, “Detection of synthetic cannabinoids” (priority 2012, dated 2014).

How the values were obtained:
Format in all cases: binding, sheep
Conditions in all cases: Cross-reactants at 100 ng/ml; 1000ng/ml; single level of cross reactants
[1] = tested on: Antibody to Immunogen III
Description: (§1) The wells of an enhanced binding 96 well polystyrene microtiter plate were coated with IgG fraction of antiserum raised to Immunogen VI, diluted in 10mM Tris, pH8.5 (125µl/well). The appropriate antibody coating dilution was determined using standard ELISA checkerboard techniques. The plate was incubated overnight at 4°C, washed 4 times over 10 minutes with Tris buffered saline containing Tween 20 (TBST) and tapped dry. Standard solutions of RCS-4 were prepared in TBST at 0, 0.3125, 0.625, 1.25, 2.5, 5, 10 and 20ng/ml, and 50µl of each was added to the appropriate wells (see figure 1). 75µl of conjugate (appropriate hapten-HRP) diluted in Tris buffer (pH 7.2) containing EDTA, D-mannitol, sucrose, thimerosal and BSA, was added to each of the wells. The appropriate dilution of conjugate was also determined using standard ELISA checkerboard techniques. The plate was incubated at 25°C for 1 hour. Excess unbound conjugate was removed by washing 6 times over a 10 minute period with TBST. 125µl oftetramethylbenzidine (TMB) substrate solution was added to each well of the plate that was then incubated for 20 minutes in the dark at room temperature. The reaction was terminated by addition of 125µl 0.2M H2SO4 to each well. The absorbance was then measured at 450nm using a microtiter plate reader. The data are inputted to a computer program called 'KC Junior'. It is a 4 parameter fit curve and allow the calculatation of concentrations between the standard runs. This program is used to calculate the IC50s by dividing the 0ng/ml OD value by 2 and obtaining the concentration value from the curve for this OD.
In a similar manner to that described above, the wells of a 96-well microtiter plate were coated with the IgG fraction of the antiserum raised to Immunogens I, II or III. Standard solutions (JWH-250 for Immunogen III) were applied at 0, 0.625, 1.25, 2.5, 5, 10, 20 and 40ng/ml and conjugate was employed as detection reagent.
(§2) The data set our in Tables 3 and 4 are generated using antibodies raised against the indicated Immunogens in a competitive binding assay with the indicated tracers, using the indicated standards: Table 2
(§3) In order to determine the specificity of the competitive ELISAs, standard solutions of a range of structurally similar synthetic cannabinoids and their metabolites were prepared in TBST. Using the calibration curves generated and employing a single level of cross reactants, these were used to determine the cross-reactivity of each immunoassay with these substances. Table 4: Cross reactivity of the competitive ELISAs for synthetic cannabinoids and their metabolites

Antibody to Immunogen V = tested on: Antibody to Immunogen V
Description: as §1
In a similar manner to that described above, the wells of a 96-well microtiter plate were coated with the IgG fraction of the antiserum raised to Immunogens IV, V, VII or VIII. Standard solutions (RCS-8 for Immunogen V) were prepared in TBST at 0, 1.25, 2.5, 5, 10, 20, 40 and 80ng/ml and conjugate was employed as detection reagent.
as §2, §3

Antibody to Immunogen VI = tested on: Antibody to Immunogen VI
Description: as §1, §2, §3

Structure (SMILES)	%B/B0 [1] [%]	%B/B0 (Antibody to Immunogen V) [%]	%B/B0 (Antibody to Immunogen VI) [%]
CCCCCn1cc(C(=O)c2c(C)ccc3ccccc23)c2ccccc21 [JWH 122 2-methylnaphthyl isomer]	80.25	83.38	90.59
CCCCCn1cc(C(=O)c2cccc3cc(C)ccc23)c2ccccc21 [JWH 122 6-methylnaphthyl isomer]	73.75	77.08	84.77
CCCCCn1cc(C(=O)c2cccc3ccc(C)cc23)c2ccccc21 [JWH 122 7-methylnaphthyl isomer]	71.72	78.80	86.92
CCCCCn1cc(C(=O)Cc2cccc(Cl)c2)c2ccccc21 [JWH 203 3-chloro isomer (JWH-237)]	22.69	27.22	72.53
CCCCCn1cc(C(=O)Cc2ccccc2OC)c2cc(O)ccc21 [JWH 250 5-hydroxyindole metabolite]	65.83	37.39	91.28
COc1ccccc1CC(=O)c1cn(CCCCCC(=O)O)c2ccccc12 [JWH 250 N-(5-carboxypentyl) metabo lite]	89.61	8.60	85.31
COc1ccccc1CC(=O)c1cn(CCCCCO)c2ccccc12 [JWH 250 N-(5-hydroxypentyl) metabo lite]	48.72	6.88	78.58
CCCCCn1cc(C(=O)Cc2cccc(C)c2)c2ccccc21 [JWH 251 3-methylphenyl isomer]	21.39	26.65	73.53
CCCCCn1c(C)c(C(=O)c2cccc3ccccc23)c2ccccc21 [JWH-007]	81.87	75.22	81.74
CCCCCC(C)n1c(C)c(C(=O)c2cccc3ccccc23)c2ccccc21 (stereo not drawn) [JWH-011]	93.19	83.73	88.22
CCCn1c(C)c(C(=O)c2cccc3ccccc23)c2ccccc21 [JWH-015]	93.97	73.42	77.06
CCCCn1c(C)c(C(=O)c2cccc3ccccc23)c2ccccc21 [JWH-016]	82.93	69.38	80.10
CCCCCn1cc(C(=O)c2cccc3ccccc23)c2ccc(OC)cc21 [JWH-018 6-methoxyindole analogue]	85.67	73.60	86.92
CC(C)(C)Cn1cc(C(=O)c2cccc3ccccc23)c2ccccc21 [JWH-018 N-(2,2-dimethylpropyl) isomer]	95.58	67.14	78.92
O=C(c1cccc2ccccc12)c1cn(CCCCCO)c2ccccc12 [JWH-018 N-(5-hydroxypentyl) metabo lite]	89.74	70.25	61.67
O=C(O)CCCCn1cc(C(=O)c2cccc3ccccc23)c2ccccc21 [JWH-018 N-pentanoic acid metabolite]	100.98	72.42	65.90
CCCCCn1cc(C(=O)c2cccc3ccccc23)c2ccccc21 [JWH-018]	78.39	78.01	82.47
CCCCCCn1cc(C(=O)c2cccc3ccccc23)c2ccccc21 [JWH-019]	88.06	70.25	78.02
CCCCCCCn1cc(C(=O)c2cccc3ccccc23)c2ccccc21 [JWH-020]	93.85	71.43	82.41
C=CCCCn1cc(C(=O)c2cccc3ccccc23)c2ccccc21 [JWH-022]	76.82	61.86	75.42
CCCCCn1ccc(C(=O)c2cccc3ccccc23)c1 [JWH-030]	95.34	77.27	86.70
